Measurements as given in patent publication US12403128B2, “Compositions and methods for blocking sodium channels” (University of Virginia Patent Foundation, priority 2017, dated 2025).
Where a name gives a salt, the structure may show the parent alone. Read-outs that look alike come from different tables or passages of the source. One block for each molecule: values may come before it.

Legend:
[1] = tested on: maximal electroshock (MES) seizures; test: MES (maximal electroshock) test, mice; type: in vivo; conditions: mice; for ED50: Mus musculus
Description: Evaluation of Compounds in MES Models of Seizures. […] These seizures are highly reproducible and are electrophysiologically consistent with human seizures. […] Abolition of the hindleg tonic extensor component of the seizure was used as the endpoint.

[2] = tested on: 6 Hz psychomotor seizures; conditions: cited from earlier work
[3] = tested on: Metrazol-induced clonic seizures; test: scM (subcutaneous Metrazol) test, mice; type: in vivo; conditions: mice; for ED50: Mus musculus
Method: (§1) Evaluation of Compounds in scM Models of Seizures. Subcutaneous injection of the convulsant Metrazol produces clonic seizures in laboratory animals. […] Animals may be pretreated with various doses of the test compound given by ip injection. At a previously determined TPE (time to peak) of the test compound, the dose of Metrazol which will induce convulsions in 97% of animals (CD97:85 mg/kg mice) may be injected into a loose fold of skin in the midline of the neck. The animals may be placed in isolation cages to minimize stress and observed for the next 30 min for the presence or absence of a seizure. An episode of clonic spasms, approximately 3-5 seconds, of the fore and/or hindlimbs, jaws, or vibrissae may be taken as the endpoint. […] The scM test represents acute animal seizures.

[4] = tested on: 6 Hz psychomotor seizures; test: 6 Hz psychomotor seizure test, mice; type: in vivo; conditions: IP; for ED50: Mus musculus; for 6 Hz (14 mA) ED50 / 6 Hz (32 mA) ED50: Table 14
Method: Evaluation of Compounds in 6 Hz Pyschomotor Seizure Test
Compounds were tested using a 6 Hz psychomotor seizure test. […] For example, both the MES and scM models are insensitive to levetiracetam, a compound considered potentially useful in the management of refractory seizures. […] Thus, the 6 Hz test can serve as a therapy resistant screening paradigm of acute seizure activity.

[5] = tested on: mice
[6] = tested on: Metrazol-induced clonic seizures; test: scM (subcutaneous Metrazol) test, rats; type: in vivo; conditions: Rattus norvegicus, rats
Method: as §1

[7] = Behavioral toxicity (TOX, TD50), rats; type: in vivo; conditions: rat, in vivo
[8] = tested on: maximal electroshock (MES) seizures; test: MES (maximal electroshock) test, rats; type: in vivo; conditions: Rattus norvegicus, rats
Description: Evaluation of Compounds in MES Models of Seizures. The MES is a model for generalized tonic-clonic seizures and provides an indication of a compound's ability to prevent seizure spread when all neuronal circuits in the brain are maximally active. These seizures are highly reproducible and are electrophysiologically consistent with human seizures. […] Abolition of the hindleg tonic extensor component of the seizure was used as the endpoint.

[9] = in vivo; conditions: mouse
[10] = tested on: corneal kindled mice seizures; test: Corneal kindled mice model; type: in vivo; conditions: for Avg. Score / N/F (animals active over number tested): TPE 0.5 hours
Method: Evaluation of Compounds in Corneal Kindled Mice Model.
Corneal kindled mice are kindled electrically via 3 second stimulation at 8 mA, 60 Hz through corneal electrodes to produce 10 consecutive stage […] seizures according to the Racine scale. Animals are defined as kindled once they progress to a reproducible stage 5 seizure. 72 hours after the mice have been kindled the test substance is administered and, according to a previously determined TPE (time to peak), the animals are electrically stimulated. The animals are considered protected when displaying a stage 3, or lower, seizure.

[11] = target: T1, Nav1.6 (Homo sapiens, UniProt Q9UQD0); test: % block of Nav1.6 at 100 μM and IC50 (NaV1.6); type: cell-based; conditions: for inhibition at 100 µM: 100 μM compound; for IC50: NaV1.6, Table 2, MV1060-MV1091, unit inferred, read-out: IC50
Method: Evaluation of Compounds for % Block of Nav1.6 at 100 μM
Compounds of the present invention were tested in an assay for % block of Nav1.6 at a concentration of 100 μM compound. Table 1 also indicates the melting point ranges for some compounds.
Some such compounds correspond to a compound of Formula III, wherein R9 is substituted with a halogen, a nitro or a CF3 group. In comparing MV1089, MV1090 and MV1091, it is shown that compounds of Formula III where R3 is H result in higher % block than when R3 is substituted. e.g., by OCH3. In comparing MV1066, MV1084, MV1085, MV1086, MV1087 and MV1088, it is shown that compounds of Formula III where R9 is halogen, a nitro or a CF3 group result in higher % block than when R9 is OCH3, COOH or CH3.

[12] = target: T2, NaV1.7 (Homo sapiens, UniProt Q15858); test: Qube assay, NaV1.7; type: cell-based; conditions: human isoform; read-out: Qube EP IC50 NaV1.7
Method: (§2) Evaluation of Compounds on Human Isoforms Using Qube Assay.
(§3) Compounds were tested using a Qube assay across NaV1.5, NaV1.6 and NaV1.7.

[13] = target: T1, Nav1.6; test: Qube assay, NaV1.6; type: cell-based; conditions: human isoform; read-out: Qube EP IC50 NaV1.6
Method: as §2, §3

[14] = target: T3, NaV1.5 (Homo sapiens, UniProt Q14524); test: Qube assay, NaV1.5; type: cell-based; conditions: human isoform; read-out: Qube EP IC50 NaV1.5
Method: as §2, §3

[15] = target: T3, NaV1.5; test: High-throughput flux assay, NaV1.5; type: cell-based; conditions: human isoform;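 also: IC50 from the flux assay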
Method: (§4) Evaluation of Compounds on Human Isoforms Using a High-Throughput Flux Assay
(§5) Compounds were tested using a high-throughput flux assay across Nav1.5, Nav1.6 and Nav1.7.

[16] = target: T2, NaV1.7; test: High-throughput flux assay, NaV1.7; type: cell-based; conditions: human isoform;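 also: IC50 from the flux assay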
Method: as §4, §5

[17] = target: T1, Nav1.6; test: High-throughput flux assay, Nav1.6; type: cell-based; conditions: human isoform;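 also: IC50 from the flux assay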
Method: as §4, §5

[18] = IP, Table 14, read-out: MES ED50
[19] = IP, Table 14, read-out: sCM ED50
[20] = 32 mA, Table 14, read-out: 6 Hz (32 mA) ED50
[21] = (14 mA) [sic], Table 14, read-out: 6 Hz (14 mA) ED50

T2 sequence (Q15858 whole entry, canonical isoform): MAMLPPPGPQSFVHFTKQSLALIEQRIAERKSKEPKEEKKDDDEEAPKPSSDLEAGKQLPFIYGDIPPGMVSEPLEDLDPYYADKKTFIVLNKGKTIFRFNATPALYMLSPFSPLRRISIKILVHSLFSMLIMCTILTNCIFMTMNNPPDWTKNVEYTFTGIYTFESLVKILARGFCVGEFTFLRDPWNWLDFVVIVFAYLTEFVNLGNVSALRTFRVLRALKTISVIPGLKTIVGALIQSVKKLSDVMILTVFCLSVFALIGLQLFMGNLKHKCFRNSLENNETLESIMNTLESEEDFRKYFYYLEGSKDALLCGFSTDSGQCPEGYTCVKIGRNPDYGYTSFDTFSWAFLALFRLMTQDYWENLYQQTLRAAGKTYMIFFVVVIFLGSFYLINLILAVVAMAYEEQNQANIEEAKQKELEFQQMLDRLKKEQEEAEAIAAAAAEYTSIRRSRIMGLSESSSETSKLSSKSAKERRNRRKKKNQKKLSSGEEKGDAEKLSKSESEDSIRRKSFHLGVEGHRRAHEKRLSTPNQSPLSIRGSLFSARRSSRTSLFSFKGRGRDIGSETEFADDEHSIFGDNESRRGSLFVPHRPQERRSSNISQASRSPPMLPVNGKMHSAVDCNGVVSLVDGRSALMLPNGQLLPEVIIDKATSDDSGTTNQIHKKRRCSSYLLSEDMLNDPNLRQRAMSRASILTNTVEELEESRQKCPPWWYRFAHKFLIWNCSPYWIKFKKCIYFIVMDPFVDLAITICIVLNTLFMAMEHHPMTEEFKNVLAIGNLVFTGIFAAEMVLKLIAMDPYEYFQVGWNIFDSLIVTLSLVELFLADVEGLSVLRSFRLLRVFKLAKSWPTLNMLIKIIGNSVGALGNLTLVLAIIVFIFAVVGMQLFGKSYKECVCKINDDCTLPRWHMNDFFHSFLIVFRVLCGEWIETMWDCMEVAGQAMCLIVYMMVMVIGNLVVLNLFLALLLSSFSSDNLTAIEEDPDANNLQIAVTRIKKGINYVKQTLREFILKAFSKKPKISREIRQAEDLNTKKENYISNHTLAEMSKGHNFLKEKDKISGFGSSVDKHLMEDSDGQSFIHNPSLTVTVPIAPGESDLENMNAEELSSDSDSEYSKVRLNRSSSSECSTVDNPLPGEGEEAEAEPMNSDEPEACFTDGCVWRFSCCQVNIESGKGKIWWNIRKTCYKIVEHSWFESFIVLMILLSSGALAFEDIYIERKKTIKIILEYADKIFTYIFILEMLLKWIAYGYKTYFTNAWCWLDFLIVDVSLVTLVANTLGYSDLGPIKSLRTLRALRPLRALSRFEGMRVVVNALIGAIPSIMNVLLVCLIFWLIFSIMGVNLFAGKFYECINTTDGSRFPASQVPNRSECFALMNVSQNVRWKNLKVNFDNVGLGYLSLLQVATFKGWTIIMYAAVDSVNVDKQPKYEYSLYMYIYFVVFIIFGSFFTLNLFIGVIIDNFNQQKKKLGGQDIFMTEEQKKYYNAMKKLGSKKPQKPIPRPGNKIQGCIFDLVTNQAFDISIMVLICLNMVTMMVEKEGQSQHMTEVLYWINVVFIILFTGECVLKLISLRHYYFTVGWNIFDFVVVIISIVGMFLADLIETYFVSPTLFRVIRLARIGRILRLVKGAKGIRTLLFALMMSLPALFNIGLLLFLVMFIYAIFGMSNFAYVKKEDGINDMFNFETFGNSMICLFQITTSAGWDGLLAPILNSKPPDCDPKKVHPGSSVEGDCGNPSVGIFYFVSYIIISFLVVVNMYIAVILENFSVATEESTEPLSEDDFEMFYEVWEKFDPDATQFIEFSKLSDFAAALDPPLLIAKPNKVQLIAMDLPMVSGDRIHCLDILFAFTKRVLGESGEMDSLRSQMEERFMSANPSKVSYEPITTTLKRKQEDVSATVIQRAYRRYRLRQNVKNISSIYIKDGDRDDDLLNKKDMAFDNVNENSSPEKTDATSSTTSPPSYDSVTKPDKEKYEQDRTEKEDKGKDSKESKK
T1 sequence (Q9UQD0 whole entry): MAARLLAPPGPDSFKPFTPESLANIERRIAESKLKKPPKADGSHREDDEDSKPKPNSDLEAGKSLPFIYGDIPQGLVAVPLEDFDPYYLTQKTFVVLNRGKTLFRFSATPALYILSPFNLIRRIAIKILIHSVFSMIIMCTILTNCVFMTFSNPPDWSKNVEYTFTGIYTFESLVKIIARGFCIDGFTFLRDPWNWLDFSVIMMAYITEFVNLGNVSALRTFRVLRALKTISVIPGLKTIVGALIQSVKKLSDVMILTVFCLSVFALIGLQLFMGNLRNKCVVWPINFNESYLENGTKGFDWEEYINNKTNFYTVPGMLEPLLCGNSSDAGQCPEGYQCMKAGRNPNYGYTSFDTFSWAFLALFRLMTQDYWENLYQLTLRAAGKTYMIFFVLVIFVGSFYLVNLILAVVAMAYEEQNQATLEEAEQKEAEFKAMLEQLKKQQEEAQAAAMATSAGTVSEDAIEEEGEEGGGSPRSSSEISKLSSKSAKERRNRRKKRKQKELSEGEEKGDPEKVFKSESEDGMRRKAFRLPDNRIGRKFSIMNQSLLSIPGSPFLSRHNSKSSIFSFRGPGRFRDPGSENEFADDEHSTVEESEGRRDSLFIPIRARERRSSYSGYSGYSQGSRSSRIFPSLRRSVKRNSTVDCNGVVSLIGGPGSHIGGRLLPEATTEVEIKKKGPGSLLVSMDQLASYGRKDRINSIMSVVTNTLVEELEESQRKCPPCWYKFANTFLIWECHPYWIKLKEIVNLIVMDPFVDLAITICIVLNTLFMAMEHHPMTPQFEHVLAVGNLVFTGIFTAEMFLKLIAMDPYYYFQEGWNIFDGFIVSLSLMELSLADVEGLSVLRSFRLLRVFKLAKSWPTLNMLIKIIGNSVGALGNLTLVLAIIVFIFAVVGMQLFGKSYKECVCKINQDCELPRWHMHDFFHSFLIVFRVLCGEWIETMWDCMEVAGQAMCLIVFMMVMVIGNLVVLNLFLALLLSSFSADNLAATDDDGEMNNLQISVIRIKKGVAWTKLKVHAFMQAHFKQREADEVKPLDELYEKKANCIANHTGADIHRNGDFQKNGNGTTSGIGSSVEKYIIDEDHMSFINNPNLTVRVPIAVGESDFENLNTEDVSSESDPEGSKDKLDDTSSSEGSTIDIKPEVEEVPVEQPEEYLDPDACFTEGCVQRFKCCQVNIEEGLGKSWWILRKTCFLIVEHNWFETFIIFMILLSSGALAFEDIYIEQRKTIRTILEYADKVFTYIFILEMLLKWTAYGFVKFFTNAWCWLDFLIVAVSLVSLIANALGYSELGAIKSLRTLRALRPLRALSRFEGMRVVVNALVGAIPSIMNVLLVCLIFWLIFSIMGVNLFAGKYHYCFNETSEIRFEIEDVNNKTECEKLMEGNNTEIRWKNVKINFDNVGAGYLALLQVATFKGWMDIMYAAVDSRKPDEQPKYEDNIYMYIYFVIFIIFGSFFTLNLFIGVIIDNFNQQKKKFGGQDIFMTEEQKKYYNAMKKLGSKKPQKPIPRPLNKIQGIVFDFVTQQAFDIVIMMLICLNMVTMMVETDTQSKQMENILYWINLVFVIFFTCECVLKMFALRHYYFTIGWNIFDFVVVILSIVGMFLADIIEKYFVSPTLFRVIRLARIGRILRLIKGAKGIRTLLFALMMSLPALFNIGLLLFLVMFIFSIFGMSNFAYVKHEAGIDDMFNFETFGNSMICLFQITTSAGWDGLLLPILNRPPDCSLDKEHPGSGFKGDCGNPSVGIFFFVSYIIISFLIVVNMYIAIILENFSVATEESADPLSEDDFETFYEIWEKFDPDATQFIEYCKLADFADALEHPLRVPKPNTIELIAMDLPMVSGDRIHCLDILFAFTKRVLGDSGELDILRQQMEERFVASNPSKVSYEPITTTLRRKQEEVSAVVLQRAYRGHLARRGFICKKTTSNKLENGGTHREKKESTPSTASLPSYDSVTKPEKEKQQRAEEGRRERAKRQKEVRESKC

SMILES: CCCC(CCC)C(=O)O [Valproic Acid, reference compound]
ED50 [1, 18]: 263 mg/kg
activity in 6 Hz test ([2]; 44 mA): need higher doses
ED50 [3, 19]: 220 mg/kg
ED50 [4, 20]: 126 mg/kg
ED50 [4, 21]: 310 mg/kg

SMILES: CCC1(C)CC(=O)NC1=O (stereo not shown) [Ethosuximide, reference compound]
TOX (TD50) ([5]; mouse, in vivo, ip): 341 mg/kg
MES ED50 ([1]; IP, Table 14): None
activity in 6 Hz test ([2]; 44 mA): ineffective
ED50 [3, 19]: 136 mg/kg
6 Hz (14 mA) ED50 ([4]; (14 mA) [sic]): None
ED50 [4, 20]: 167 mg/kg

SMILES: O=C1NC(=O)C(c2ccccc2)(c2ccccc2)N1 [Phenytoin, reference compound]
activity in 6 Hz test ([2]; 32 mA): lose activity
sCM ED50 ([3]; IP, Table 14): None
6 Hz (32 mA) ED50 ([4]; 32 mA): None
6 Hz (14 mA) ED50 ([4]; (14 mA) [sic]): None

SMILES: COc1ccc(-c2nc3ccccc3[nH]2)cc1 [MV1062, 2-(4-methoxyphenyl)-1H-1,3-benzodiazole]
ED50 ([6]; sc, read-out: ED50 (scM test)): 123 mg/kg
ED50 ([6]; IP, Table 15, read-out: sCM ED50): 122 mg/kg
TD50 ([7]; IP, Table 15, read-out: TOX TD50): > 500 mg/kg
TD50 ([7]; read-out: TD50 (behavioral toxic dose)): > 500 mg/kg
ED50 [1, 18]: 30.8 mg/kg
ED50 ([1]; read-out: ED50 (MES test)): 30.8 mg/kg
ED50 ([8]; IP, Table 15, read-out: MES ED50): 10.8 mg/kg
ED50 ([8]; read-out: ED50 (MES test)): 10.8 mg/kg
ED50 ([3]; sc, read-out: ED50 (scM test)): 206 mg/kg
ED50 [3, 19]: 206 mg/kg
ED50 [4, 20]: 69.6 mg/kg
ED50 [4, 21]: 80.5 mg/kg
TD50 [9]: 601 mg/kg
TD50 ([9]; ip): 601 mg/kg
Avg. Score ([10]; 20 mg/kg): 5.0
N/F (animals active over number tested) ([10]; 20 mg/kg): 0/8
Avg. Score ([10]; 55 mg/kg): 4.0
N/F (animals active over number tested) ([10]; 55 mg/kg): 3/8
Avg. Score ([10]; 100 mg/kg): 1.375
N/F (animals active over number tested) ([10]; 100 mg/kg): 7/8
ED50 ([10]; Mus musculus): 63.6 mg/kg
inhibition at 100 µM [11]: 70%
IC50 [11]: 90.2 µM

SMILES: NC(=O)N1c2ccccc2C=Cc2ccccc21 [Carbamazepine, reference compound]
TOX (TD50) ([5]; mice, IP, Table 14): 45.5 mg/kg
ED50 [1, 18]: 7.8 mg/kg
sCM ED50 ([3]; IP, Table 14): None
6 Hz (32 mA) ED50 ([4]; 32 mA): None
6 Hz (14 mA) ED50 ([4]; (14 mA) [sic]): None

SMILES: CC[C@@H](C(N)=O)N1CCCC1=O [levetiracetam]
activity in 6 Hz test ([2]; 44 mA): need higher doses

SMILES: Nc1nnc(-c2cccc(Cl)c2Cl)c(N)n1 [Lamotrigine, reference compound]
ED50 [1, 18]: 7.5 mg/kg
activity in 6 Hz test ([2]; 32 mA): lose activity
sCM ED50 ([3]; IP, Table 14): None
6 Hz (32 mA) ED50 ([4]; 32 mA): None
6 Hz (14 mA) ED50 ([4]; (14 mA) [sic]): None

Continued, in another order:

IC50 [12]: 14.8 µM
IC50 [13]: 7.43 µM
IC50 [16]: 7.98 µM
IC50 [17]: 2.74 µM
inhibition at 100 µM [11]: 90%
SMILES: COc1ccc(-c2nc(C)c(-c3ccccc3)[nH]2)cc1 [MV1501, 2-(4-methoxyphenyl)-4-methyl-5-phenyl-1H-imidazole hydrochloride]
IC50 [14]: 27 µM
IC50 [15]: 6.24 µM

IC50 [12]: 30 µM
IC50 [13]: 8.24 µM
IC50 [16]: 23.8 µM
IC50 [17]: 5.67 µM
inhibition at 100 µM [11]: 90%
SMILES: CC(=O)Nc1ccc(-c2nc(C)c(-c3ccccc3)[nH]2)cc1 [MV1509, N-2,4-[3-methyl-4-phenyl-1H-imidazol-2-yl)phenyl]acetamide hydrochloride]
IC50 [14]: 15.9 µM
IC50 [15]: 7.94 µM

inhibition at 100 µM [11]: 90%
SMILES: CCCc1nc(-c2ccccc2OC)[nH]c1C [MV1370, 2-(2-METHOXY-PHENYL)-5-METHYL-4-PROPYL-1H-IMIDAZOLE OXALATE]

inhibition at 100 µM [11]: 85%
SMILES: CCCc1nc(-c2ccc(OC)cc2)[nH]c1C [MV1368, 2-(4-METHOXY-PHENYL)-5-METHYL-4-PROPYL-1H-IMIDAZOLE OXALATE]

inhibition at 100 µM [11]: 20%
SMILES: Clc1cccc(-c2ncc[nH]2)c1 [MV1354, 2-(3-CHLORO-PHENYL)-1H-IMIDAZOLE OXALATE]

inhibition at 100 µM [11]: 35%
IC50 [11]: > 100 µM
SMILES: COc1ccc2nc(-c3ccccc3)[nH]c2c1 [MV1085, 6-methoxy-2-phenyl-1H-1,3-benzodiazole]

inhibition at 100 µM [11]: 30%
SMILES: Clc1ccc(-c2ncc[nH]2)cc1 [MV1353, 2-(4-CHLORO-PHENYL)-1H-IMIDAZOLE OXALATE]

inhibition at 100 µM [11]: 20%
SMILES: COc1ccc(-c2nc(-c3ccc(NC(=O)c4ccccc4)cc3)c[nH]2)cc1 [MV1302, N-(4-[2-(4-METHOXY-PHENYL-1H-IMIDAZOL-4-YL]-PHENYL)-BENZAMIDE HYDROCHLORIDE]

inhibition at 100 µM [11]: 70%
SMILES: O=[N+]([O-])c1ccc2nc(-c3ccccc3)[nH]c2c1 [MV1084, 6-nitro-2-phenyl-1H-1,3-benzodiazole]

inhibition at 100 µM [11]: 15%
IC50 [11]: > 100 µM
SMILES: FC(F)(F)c1ccc(-c2nc3ccccc3[nH]2)cc1 [MV1077, 2-(4-trifluoromethyl-phenyl)-1H-1,3-benzodiazole]

IC50 [12]: 11.5 µM
IC50 [13]: 3.99 µM
IC50 [16]: 4.58 µM
IC50 [17]: 1.88 µM
inhibition at 100 µM [11]: 90%
SMILES: COc1ccc(-c2nc(C)c(-c3ccccc3)[nH]2)cc1O [MV1508, 2-methoxy-5-(5-methyl-4-phenyl-1H-imidazol-2-yl)phenol hydrochloride]
IC50 [14]: 11.9 µM
IC50 [15]: 2.61 µM

inhibition at 100 µM [11]: 85%
IC50 [11]: 29.6 µM
SMILES: COc1cccc(-c2nc3cc(Cl)ccc3[nH]2)c1 [MV1090, 6-chloro-2-(3-methoxyphenyl)-1H-1,3-benzodiazole]
